The record followed here is paper PMC4032254, “Targeting of the MYCN Protein with Small Molecule c-MYC Inhibitors” (PLoS ONE, 2014).

The target of experiment [1] is T1, bHLHZip domain of human c-MYC (353–437) (Homo sapiens, UniProt P01106).
T1 construct: N-terminally His-tagged bHLHZip c-MYC (353–437) and bHLHZip MYCN (380–464) proteins were over-expressed in E. coli BL21 (DE3); made in house; host or cells: E. coli BL21 (DE3)
In words: Surface plasmon resonance binding to bHLHZip of c-MYC. To be noted: SPR, 25°C, steady state, mean ± SD. As to the method: (§1) For all SPR binding measurements the compounds were injected at increasing concentrations.
(§2) In order to determine the affinity of the compounds to c-MYC and MYCN, the response for each small molecule was plotted against the analyte (compound) concentration. The KD was defined as the concentration of analyte at 50% of the experimental maximal Response (Rmax). Approximate KD-values could be determined for all compounds except for #764. […] In summary, all active c-MYC inhibitors tested were also found to bind directly to MYCN.
N-terminally His-tagged bHLHZip c-MYC (353–437) and bHLHZip MYCN (380–464) proteins were over-expressed in E. coli BL21 (DE3) bacteria (Stratagene) at 37°C in LB media with kanamycin. Cultures were induced with Isopropyl β-D-1-thiogalactopyranoside (0,1 mg/ml) at an OD of 0.6 and harvested after 4 hours. […] Protein concentrations were determined by SDS-page comparing purified proteins to a standard curve of BSA loaded on the gel.
(§3) Surface Plasmon Resonance (SPR) experiments were performed using a Biacore T200 (GE Healthcare) instrument at 25°C. […] The obtained data was analyzed by the Biacore T200 Evaluation Software 2.0 (GE Healthcare). […]
Background: SPR reads the build-up and loss of mass on a sensor chip optically.

Experiment [2] concerns the target T2, bHLHZip domain of human MYCN (380–464) (Homo sapiens, UniProt P04198).
T2 construct: N-terminally His-tagged bHLHZip c-MYC (353–437) and bHLHZip MYCN (380–464) proteins were over-expressed in E. coli BL21 (DE3); made in house; host or cells: E. coli BL21 (DE3)
Briefly: Surface plasmon resonance binding to bHLHZip of MYCN. To be noted: SPR, 25°C, steady state, mean ± SD. As to the method: as §1, §2
N-terminally His-tagged bHLHZip c-MYC (353–437) and bHLHZip MYCN (380–464) proteins were over-expressed in E. coli BL21 (DE3) bacteria (Stratagene) at 37°C in LB media with kanamycin. Cultures were induced with Isopropyl β-D-1-thiogalactopyranoside (0,1 mg/ml) at an OD of 0.6 and harvested after 4 hours. After sonication of the proteins in 50 mM NaH2PO4, 100 mM NaCl and 10 mM Tris-HCl (pH = 8,0) for 6×30 seconds, the pellet was resuspended in 100 mM NaH2PO4, 10 mM Tris-HCl, 10 mM imidazole and 8 M urea (pH = 8,0) prior to additional sonication for 6×30 seconds. The proteins were then loaded onto a Ni-Sepahrose High Performance His-Trap column (GE Healthcare), washed with ten column volumes of 100 mM NaH2PO4, 10 mM Tris-HCl, 40 mM imidazole and 8 M urea (pH = 8,0) and finally eluted with two column volumes 100 mM NaH2PO4, 10 mM Tris-HCl, 500 mM imidazole and 8 M urea (pH = 8,0). Fractions without visible higher molecular mass contaminations, as judged by SDS-page, were pooled and refolded by dialysis in 50 mM NaH2PO4, 100 mM NaCl, 10 mM Tris-HCl (pH = 8,0), 5 mM EDTA, 2 mM DTT and decreasing concentrations of urea (6 M, 4 M, 2 M and 0 M). […] Protein concentrations were determined by SDS-page comparing purified proteins to a standard curve of BSA loaded on the gel.
as §3

Another experiment concerns the target T3, MYCN/MAX interaction (Homo sapiens, UniProt P04198).
T3 construct: endogenous in cells; host or cells: SMS-KCN69n (human MYCN-amplified neuroblastoma)
T3 sequence (P04198 1-464): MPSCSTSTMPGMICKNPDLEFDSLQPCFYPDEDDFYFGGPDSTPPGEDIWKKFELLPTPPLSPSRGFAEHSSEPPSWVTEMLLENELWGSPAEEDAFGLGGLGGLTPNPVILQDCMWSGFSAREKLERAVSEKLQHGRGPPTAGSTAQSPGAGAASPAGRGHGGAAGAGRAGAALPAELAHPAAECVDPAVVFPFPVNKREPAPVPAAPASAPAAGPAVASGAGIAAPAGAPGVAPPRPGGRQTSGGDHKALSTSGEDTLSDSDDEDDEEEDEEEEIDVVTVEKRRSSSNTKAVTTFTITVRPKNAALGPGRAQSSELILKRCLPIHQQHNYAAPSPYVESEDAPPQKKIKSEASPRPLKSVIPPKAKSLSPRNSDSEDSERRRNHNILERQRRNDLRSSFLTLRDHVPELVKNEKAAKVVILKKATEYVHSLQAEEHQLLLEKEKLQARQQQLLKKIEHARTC
Briefly: Proximity ligation assay (PLA) for MYCN/MAX interaction in SMS-KCN69n cells. The format is cell-based. From the text:
To investigate if the other small molecules also have an effect on MYCN/MAX dimerization we performed a proximity ligation assay (PLA) using MYCN-amplified SMS-KCN69n NB cells. […] No signal was detected in any of the experimental negative controls (Figure S4).
Figure 3 Reduction of MYCN/MAX interaction in NB cells after treatment with small molecules. A) Proximity ligation assay (PLA) for MYCN/MAX interaction after treatment of SMS-KCN69n cells with the different small molecules at the indicated concentrations for 6 hours. […] DNA is stained with DAPI. Scale bar: […]. The pictures are representative from three independent experiments. B) Quantification of the PLA signals per cell after treatment with the different compounds. Error bars indicate standard error of the mean.
40×10^3 SMS-KCN69n cells were seeded on collagen coated coverslips and grown for 24 hours and treated for 6 hours the next day. After 6 hours the cells were washed in PBS and treated as previously described. The PLA assay was performed after manufacturer's instructions with the Duolink kit (Olink, Uppsala, Sweden). The cells were incubated with primary antibody against MYCN (NCMII100, St Cruz Bio) 1∶500 and Max (C-17, St Cruz Bio) 1∶500 for 1 hour in a humidity chamber at 37°C, which were diluted in antibody diluent provided by the manufacturer. MYCN (1∶500) and FAS (A-20, St Cruz Bio) 1∶500 as well as MAX (1∶500) and GFP (C-2, St Cruz Bio) 1∶500 antibodies were used in combination in order to test for any unspecific binding of the secondary antibodies or unspecific signals. […]
The confocal images of the cells were acquired at 63× magnification using a motorized axiovert fluorescence microscope 200 M LCI (Zeiss GmBH, Göttingen, Germany) including a CSU10 Yokogawa head; a multilens/multipinhole array aperture (Yokogawa, Japan), an ORCA ER cold CCD camera; detector array 1344×1024px (Hammamatsu, Japan) and two continuous wave diode-pumped solid-state (DPSS) lasers for fluorescence excitation (Cobolt, Sweden); Cobolt Calypso 491 nm DPSS (excitation of green PLA fluorophore) and Cobolt Jive 561 nm DPSS (excitation of Alexa Fluor 568). […] A total amount of at least 120 cells were analyzed for all compounds. The PLA signals were analyzed using the open source image analysis program Image J (NIH, Bethseda, USA) and the amount of PLA signal per cell was calculated. Two persons analyzed the images independently in a blind fashion.
In order to quantify the PLA signal from the total z-depth of each cell confocal z-stacks was projected in z and identically processed regarding background subtraction. The PLA signal was then quantified blindly and automatically using a find maxima-based algorithm in ImageJ (plugin routine developed by Dr. E. Flaberg and Professor L. Szekely, KI and available upon request). […]

T1 sequence (P01106 368-452): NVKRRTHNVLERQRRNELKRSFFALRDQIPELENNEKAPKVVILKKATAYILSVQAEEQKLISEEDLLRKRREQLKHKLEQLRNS

What is called Kd is a measure of binding affinity in units of concentration. The low end stands for a tighter complex, the high end for a looser complex. Consider `CCc1ccc(C=C2SC(=O)NC2=O)cc1` [C-m/z 232], for which the Kd is 82.3 µM in experiment [1] and 87.1 µM in experiment [2]. Also, the “effect on MYCN/MAX interaction (PLA) at 112.5 µM” value on MYCN/MAX interaction (112.5 µM) was “not able to effect the MYCN/MAX interaction”. Also, on MYCN/MAX interaction (6 hours treatment, compared to DMSO), the “effect on MYCN/MAX interaction (PLA)” value was “did not affect MYCN/MAX dimer formation”.
